Measurements from PubChem BioAssay AID1963847 (Molecular Pharmacology Branch, DTP, NCI, 2024).

Test system: 415267-285-R-J2-PDC complex spheroid viability
Assay: Anticancer human tumor 415267-285-R-J2-PDC patient-derived breast carcinoma cell line growth inhibition [POLQ]
Conditions: for IC50: curve of first compound; for viability, T/C: stronger effect = lower value; active = viability on the fitted dose curve at most 10% of control; inactive = the rest
Method in brief: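 Three-cell-type spheroids modelling solid tumor plus stroma served as the readout system; POL inhibitors were tested individually and in combination, concentration ranges set by clinical Cmax where known.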

[1] = second compound 0.0316 µM, first compound 0.0316 µM
[2] = second compound 0.0316 µM, first compound 0.1 µM
[3] = second compound 0.0316 µM, first compound 0.316 µM
[4] = second compound 0.0316 µM, first compound 1 µM
[5] = second compound 0.1 µM, first compound 0.0316 µM
[6] = second compound 0.1 µM, first compound 0.1 µM
[7] = second compound 0.1 µM, first compound 0.316 µM
[8] = second compound 0.1 µM, first compound 1 µM
[9] = second compound 0.316 µM, first compound 0.0316 µM
[10] = second compound 0.316 µM, first compound 0.1 µM
[11] = second compound 0.316 µM, first compound 0.316 µM
[12] = second compound 0.316 µM, first compound 1 µM
[13] = second compound 1 µM, first compound 0.0316 µM
[14] = second compound 1 µM, first compound 0.1 µM
[15] = second compound 1 µM, first compound 0.316 µM
[16] = second compound 1 µM, first compound 1 µM
[17] = second compound 3.16 µM, first compound 0.0316 µM
[18] = second compound 3.16 µM, first compound 0.1 µM
[19] = second compound 3.16 µM, first compound 0.316 µM
[20] = second compound 3.16 µM, first compound 1 µM
[21] = second compound 10 µM, first compound 0.0316 µM
[22] = second compound 10 µM, first compound 0.1 µM
[23] = second compound 10 µM, first compound 0.316 µM
[24] = second compound 10 µM, first compound 1 µM
[25] = second compound 0.0316 µM, first compound 3.16 µM
[26] = second compound 0.0316 µM, first compound 10 µM
[27] = second compound 0.1 µM, first compound 3.16 µM
[28] = second compound 0.1 µM, first compound 10 µM
[29] = second compound 0.316 µM, first compound 3.16 µM
[30] = second compound 0.316 µM, first compound 10 µM
[31] = second compound 1 µM, first compound 3.16 µM
[32] = second compound 1 µM, first compound 10 µM
[33] = second compound 3.16 µM, first compound 3.16 µM
[34] = second compound 3.16 µM, first compound 10 µM
[35] = second compound 10 µM, first compound 3.16 µM
[36] = second compound 10 µM, first compound 10 µM
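Also: spheroids exposed to compounds for one week before readout.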
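For viability, T/C in this document: luminescence used as stand-in measure of viable cells; 100% = DMSO vehicle control viability.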

COc1cccc(OCCCN)c1-c1cc(Nc2cnc(C#N)cn2)n[nH]1 + Nc1ccc(C#CCN(C(=O)Cc2ncc(C(F)(F)F)cc2C(F)(F)F)c2ccc(F)cc2)nn1
inactive: viability, T/C (second compound 0.0316 µM, first compound 0.00316 µM) 99% | viability, T/C (second compound 0.0316 µM, first compound 0.01 µM) 29.9% | viability, T/C (second compound 0.1 µM, first compound 0.00316 µM) 94.9% | viability, T/C (second compound 0.1 µM, first compound 0.01 µM) 18% | viability, T/C (second compound 0.316 µM, first compound 0.00316 µM) 119% | viability, T/C (second compound 0.316 µM, first compound 0.01 µM) 13.8% | viability, T/C (second compound 1 µM, first compound 0.00316 µM) 101% | viability, T/C (second compound 3.16 µM, first compound 0.00316 µM) 94.9% | viability, T/C (second compound 10 µM, first compound 0.00316 µM) 100%
6.19 nM: IC50 (second compound 0.1 µM)
5.96 nM: IC50 (second compound 1 µM)
7.16 nM: IC50 (second compound 0.0316 µM)
6.72 nM: IC50 (second compound 0.316 µM)
active: viability, T/C [1] 6.2% | viability, T/C [2] 5.95% | viability, T/C [3] 4.32% | viability, T/C [4] 4.9% | viability, T/C [5] 5.46% | viability, T/C [6] 5.78% | viability, T/C [7] 5.23% | viability, T/C [8] 3.98% | viability, T/C [9] 5.29% | viability, T/C [10] 4.56% | viability, T/C [11] 4.96% | viability, T/C [12] 4.07% | viability, T/C (second compound 1 µM, first compound 0.01 µM) 8.35% | viability, T/C [13] 5.83% | viability, T/C [14] 5.25% | viability, T/C [15] 5.41% | viability, T/C [16] 4.11% | viability, T/C (second compound 3.16 µM, first compound 0.01 µM) 9.02% | viability, T/C [17] 5.49% | viability, T/C [18] 5.19% | viability, T/C [19] 6.6% | viability, T/C [20] 4.85% | viability, T/C (second compound 10 µM, first compound 0.01 µM) 7.29% | viability, T/C [21] 6.73% | viability, T/C [22] 5.13% | viability, T/C [23] 4.64% | viability, T/C [24] 4.87%
5.77 nM: IC50 (second compound 3.16 µM)
5.9 nM: IC50 (second compound 10 µM)

CC1COCCN1c1cc(-c2ccnn2C)c2ccnc(-c3ccn[nH]3)c2n1 (stereo unspecified) + Cc1cccc(N(C)C(=O)C2C(O)CCN2c2nc(C)cc(C(F)(F)F)c2C#N)c1
35.9 nM: IC50 (second compound 10 µM)
active: viability, T/C [3] 6.77% | viability, T/C [4] 4.72% | viability, T/C [25] 4.84% | viability, T/C [26] 4.51% | viability, T/C [7] 6.11% | viability, T/C [8] 4.5% | viability, T/C [27] 4.14% | viability, T/C [28] 5.26% | viability, T/C [11] 5.28% | viability, T/C [12] 4.19% | viability, T/C [29] 4.21% | viability, T/C [30] 4.67% | viability, T/C [15] 6.08% | viability, T/C [16] 4.95% | viability, T/C [31] 4.35% | viability, T/C [32] 4.81% | viability, T/C [19] 5.26% | viability, T/C [20] 4.41% | viability, T/C [33] 4.33% | viability, T/C [34] 4.61% | viability, T/C [23] 5.93% | viability, T/C [24] 4.73% | viability, T/C [35] 5.68% | viability, T/C [36] 4.55%
33.6 nM: IC50 (second compound 3.16 µM)
< 31.6 nM: IC50 (second compound 0.0316 µM) | IC50 (second compound 0.1 µM) | IC50 (second compound 0.316 µM)
inactive: viability, T/C [1] 44% | viability, T/C [2] 17.2% | viability, T/C [5] 41.2% | viability, T/C [6] 11.3% | viability, T/C [9] 47.2% | viability, T/C [10] 13.3% | viability, T/C [13] 52.6% | viability, T/C [14] 10.9% | viability, T/C [17] 52.2% | viability, T/C [18] 10.7% | viability, T/C [21] 53.4% | viability, T/C [22] 22.9%
33.9 nM: IC50 (second compound 1 µM)

O=c1[nH]cc(F)c(=O)[nH]1 + Nc1ccc(C#CCN(C(=O)Cc2ncc(C(F)(F)F)cc2C(F)(F)F)c2ccc(F)cc2)nn1
inactive: viability, T/C [1] 101% | viability, T/C [2] 93% | viability, T/C [3] 57.5% | viability, T/C [4] 21.4% | viability, T/C [25] 29.9% | viability, T/C [26] 40.1% | viability, T/C [5] 86.4% | viability, T/C [6] 85.5% | viability, T/C [7] 43% | viability, T/C [8] 20.9% | viability, T/C [27] 30% | viability, T/C [28] 38.5% | viability, T/C [9] 93.6% | viability, T/C [10] 97% | viability, T/C [11] 45.1% | viability, T/C [12] 24.4% | viability, T/C [29] 24.6% | viability, T/C [30] 46.4% | viability, T/C [13] 97% | viability, T/C [14] 92.7% | viability, T/C [15] 49.1% | viability, T/C [16] 27.1% | viability, T/C [31] 30.4% | viability, T/C [32] 35.4% | viability, T/C [17] 106% | viability, T/C [18] 90.7% | viability, T/C [19] 44.5% | viability, T/C [20] 22.4% | viability, T/C [33] 24.1% | viability, T/C [34] 42.3% | viability, T/C [21] 113% | viability, T/C [22] 87% | viability, T/C [23] 52.5% | viability, T/C [24] 26.5% | viability, T/C [35] 26.6% | viability, T/C [36] 39%
262 nM: IC50 (second compound 0.1 µM)
307 nM: IC50 (second compound 1 µM)
309 nM: IC50 (second compound 10 µM)
283 nM: IC50 (second compound 0.316 µM)
268 nM: IC50 (second compound 3.16 µM)
435 nM: IC50 (second compound 0.0316 µM)
